Reference: US10301664B2, “Repurposing non-antimicrobial drugs and clinical molecules to treat bacterial infections” (Purdue Research Foundation, priority 2015, dated 2019)
Converted amounts (≈) assume the structure as drawn. Like-named read-outs stand apart in the source and are kept apart here. Numbered stars: 1 amine (or outer) side, 2 acyl side, 3 side chain; on linkers, the order of the positions; unused ones are H or OH. Bridge positions count the residues as written; N and C are the ends. Square brackets hold non-standard residues; d marks the D form. Peptide text beside a SMILES is read from it. I, II: the chains in the order shown. Actinocin(9to1) = Cc1c2oc3c(C)ccc(C(=O)[*:1])c3nc-2c(C(=O)[*:2])c(N)c1=O; NMeV = CN[C@H](C(=O)O)C(C)C; Sar = CNCC(=O)O

What was measured:
MRSA USA300 [1] = assay: Library hits: MIC/MBC against MRSA; assay type: cell-based, Staphylococcus aureus
[2] = tested on: vancomycin resistant E. faecium ATCC 700221 (VRE); assay: Library hits: MIC/MBC against VRE; assay type: cell-based
[3] = tested on: MRSA USA300 persister cells tolerant to ciprofloxacin; assay: Killing of S. aureus persister cells; assay type: cell-based; conditions: added after ciprofloxacin treatment; 48 h
MRSA USA300 [4] = assay: Mouse model of MRSA systemic infection (lethal); assay type: in vivo, BALB/c mice; conditions: oral 25 mg/kg once daily, three doses
Excerpt: For MRSA systemic infection, neutropenic Female BALB/c mice were inoculated IP with 1×10^9 MRSA USA300.

[5] = tested on: K. pneumoniae ATCC BAA-1705; assay: Library hits: MIC against K. pneumoniae; assay type: cell-based
[6] = tested on: A. baumannii ATCC BAA-1605; assay: Library hits: MIC against A. baumannii; assay type: cell-based
E. cloacae ATCC BAA-1143 = assay: Library hits: MIC against E. cloacae; assay type: cell-based
P. aeruginosa ATCC 15442 = assay: Library hits: MIC against P. aeruginosa; assay type: cell-based
A. baumannii = assay: MIC against G-ve with and without colistin: A. baumannii; assay type: cell-based
E.. coli O157:H7 = assay: MIC against G-ve with and without colistin: E. coli O157:H7; assay type: cell-based; conditions: E. coli O157:H7
S. Typhimurium = assay: MIC against G-ve with and without colistin: S. Typhimurium; assay type: cell-based
K. pneumonia = assay: MIC against G-ve with and without colistin: K. pneumonia; assay type: cell-based
P. aeruginosa = assay: MIC against G-ve with and without colistin: P. aeruginosa; assay type: cell-based
intracellular MRSA = assay: Synergy with conventional antimicrobials in infected cell cultures; assay type: cell-based; conditions: compared to monotherapy
[7] = Staphylococcus aureus, read-out: MBC
[8] = Staphylococcus aureus, read-out: MIC

Compound `CCN(CC)CCOc1ccc(C(=C(Cl)c2ccccc2)c2ccccc2)cc1` [Clomid] has an MBC (MRSA USA300 [1]; [7]) of 32 µM (≈ 13 µg/mL), an MIC (MRSA USA300 [1]; [8]) of 16 µM (≈ 6.5 µg/mL) and an MIC ([2]; VRE, read-out: MIC) of 16 µM (≈ 6.5 µg/mL).

Work on `CC(C)c1ccc2c(c1)c(SC(C)(C)C)c(CC(C)(C)C(=O)O)n2Cc1ccc(Cl)cc1` [MK-886] yielded an MBC (MRSA USA300 [1]; MRSA, read-out: MBC) of 16 µM (≈ 7.55 µg/mL), an MIC (MRSA USA300 [1]; MRSA, read-out: MIC) of 8 µM (≈ 3.78 µg/mL) and an MIC ([2]; VRE, read-out: MIC) of 8 µM (≈ 3.78 µg/mL).

`Cc1c2oc3c(C)ccc(C(=O)N[C@@H]4C(=O)N[C@H](C(C)C)C(=O)N5CCC[C@H]5C(=O)N(C)CC(=O)N(C)[C@@H](C(C)C)C(=O)O[C@@H]4C)c3nc-2c(C(=O)N[C@@H]2C(=O)N[C@H](C(C)C)C(=O)N3CCC[C@H]3C(=O)N(C)CC(=O)N(C)[C@@H](C(C)C)C(=O)O[C@@H]2C)c(N)c1=O` [Dactinomycin] (I: T[dV]P[Sar][NMeV] / II: T[dV]P[Sar][NMeV]; ester I:1-I:C, II:1-II:C; linker I:N-II:N via Actinocin(9to1)) showed an MIC (MRSA USA300 [1]; Staphylococcus aureus) greater than 16 µM and an MIC [2] of 0.5 µM (≈ 0.628 µg/mL).

`CC(=O)NC[C@H]1CN(c2ccc(N3CCOCC3)c(F)c2)C(=O)O1` [linezolid] was tested, and the “effect on number of planktonic persister cells” value [3] was “minimal impact” and the mice survival (MRSA USA300 [4]) was “significantly increased mice survival”.

For `CN(C)CCOc1ccc(/C(=C(/CCCl)c2ccccc2)c2ccccc2)cc1` [Toremifene], the MBC (MRSA USA300 [1]; [7]) was 16 µM (≈ 6.5 µg/mL), the MIC (MRSA USA300 [1]; [8]) was 16 µM (≈ 6.5 µg/mL) and the MIC ([2]; VRE, read-out: MIC) was 16 µM (≈ 6.5 µg/mL).

Work on `CC(=O)Nc1nnc(S(N)(=O)=O)s1` [Acetazolamide] yielded an MIC (MRSA USA300 [1]; [8]) greater than 16 µM and an MIC ([2]; VRE, read-out: MIC) of 1 µM (≈ 0.222 µg/mL).

Work on `Cc1nc2ccc(CN(C)c3ccc(C(=O)N[C@@H](CCC(=O)O)C(=O)O)s3)cc2c(=O)[nH]1` [Raltitrexed] yielded an MIC (MRSA USA300 [1]; [8]) greater than 16 µM and an MIC ([2]; VRE, read-out: MIC) of 2 µM (≈ 0.917 µg/mL).

Compound `COc1cccc2c1C(=O)c1c(O)c3c(c(O)c1C2=O)C[C@@](O)(C(C)=O)C[C@@H]3O[C@H]1C[C@H](N)[C@H](O)[C@H](C)O1` [Daunorubicin] has an MBC (MRSA USA300 [1]; Staphylococcus aureus) of 16 µM (≈ 8.44 µg/mL), an MIC (MRSA USA300 [1]; Staphylococcus aureus) of 16 µM (≈ 8.44 µg/mL) and an MIC [2] of 8 µM (≈ 4.22 µg/mL).

Compound `Clc1ccc(CO/N=C(\Cn2ccnc2)c2ccc(Cl)cc2Cl)c(Cl)c1` [Oxiconazole] has an MBC (MRSA USA300 [1]; [7]) of 32 µM (≈ 13.7 µg/mL).

`O=c1[nH]cc(F)c(=O)[nH]1` [5-Fluorouracil] was tested, and the MBC (MRSA USA300 [1]; [7]) was 16 µM (≈ 2.08 µg/mL), the MIC (MRSA USA300 [1]; [8]) was 4 µM (≈ 0.52 µg/mL) and the MIC ([2]; VRE, read-out: MIC) was greater than 16 µM.

Work on `CC(C)NCC(O)c1ccc(O)c(O)c1` (stereo not drawn) [Isoproterenol] yielded an MBC (MRSA USA300 [1]; [7]) of 64 µM (≈ 13.5 µg/mL), an MIC (MRSA USA300 [1]; [8]) of 16 µM (≈ 3.38 µg/mL) and an MIC ([2]; VRE, read-out: MIC) greater than 16 µM.

`Clc1ccc(COC(Cn2ccnc2)c2ccc(Cl)cc2Cl)c(Cl)c1` (stereo not drawn) [Miconazole] was tested, and the MBC (MRSA USA300 [1]; [7]) was 8 µM (≈ 3.33 µg/mL), the MIC (MRSA USA300 [1]; [8]) was 4 µM (≈ 1.66 µg/mL) and the MIC ([2]; VRE, read-out: MIC) was greater than 16 µM.

`CC/C(=C(\c1ccccc1)c1ccc(OCCN(C)C)cc1)c1ccccc1` [Tamoxifen] gave an MBC (MRSA USA300 [1]; [7]) of 16 µM (≈ 5.94 µg/mL), an MIC (MRSA USA300 [1]; [8]) of 16 µM (≈ 5.94 µg/mL) and an MIC ([2]; VRE, read-out: MIC) greater than 16 µM.

For `CCCCCCNC(=O)n1cc(F)c(=O)[nH]c1=O` [Carmofur], the MBC (MRSA USA300 [1]; [7]) was 4 µM (≈ 1.03 µg/mL), the MIC (MRSA USA300 [1]; [8]) was 2 µM (≈ 0.515 µg/mL) and the MIC ([2]; VRE, read-out: MIC) was greater than 16 µM.

For `Clc1ccccc1C(c1ccccc1)(c1ccccc1)n1ccnc1` [Clotrimazole], the MBC (MRSA USA300 [1]; [7]) was 64 µM (≈ 22.1 µg/mL), the MIC (MRSA USA300 [1]; [8]) was 4 µM (≈ 1.38 µg/mL) and the MIC ([2]; VRE, read-out: MIC) was greater than 16 µM.

`CSc1nc2cc(Cl)c(Oc3cccc(Cl)c3Cl)cc2[nH]1` [Triclabendazole] showed an MBC (MRSA USA300 [1]; [7]) of 32 µM (≈ 11.5 µg/mL), an MIC (MRSA USA300 [1]; [8]) of 8 µM (≈ 2.88 µg/mL) and an MIC ([2]; VRE, read-out: MIC) greater than 16 µM.

In the case of `NS(=O)(=O)c1cc(C(=O)O)c(NCc2ccco2)cc1Cl` [Furosemide], the MIC (MRSA USA300 [1]; [8]) is reported as greater than 16 µM and the MIC ([2]; VRE, read-out: MIC) is reported as 4 µM (≈ 1.32 µg/mL).

With `C=C[C@]1(C)C[C@@H](OC(=O)CS[C@@H]2C[C@H]3CC[C@@H](C2)N3C)[C@]2(C)[C@H](C)CC[C@]3(CCC(=O)[C@H]32)[C@@H](C)[C@@H]1O` [retapamulin] the “effect on number of planktonic persister cells” value [3] was “minimal impact”.

Work on `CCCCCCCCCOc1ccc2[nH]cc(CCN)c2c1` [5-Nonyloxytryptamine] yielded an MBC (MRSA USA300 [1]; Staphylococcus aureus) of 8 µM (≈ 2.42 µg/mL), an MIC (MRSA USA300 [1]; Staphylococcus aureus) of 4 µM (≈ 1.21 µg/mL) and an MIC [2] of 8 µM (≈ 2.42 µg/mL). The MIC/MBC [5] was greater than 16 µM, the MIC/MBC [6] was 16 µM (≈ 4.84 µg/mL) and the MIC/MBC (E. cloacae ATCC BAA-1143) was 16 µM (≈ 4.84 µg/mL). For the same compound, the MIC/MBC (P. aeruginosa ATCC 15442) was greater than 16 µM.

Compound `Clc1ccc(COC(Cn2ccnc2)c2ccc(Cl)cc2Cl)cc1` (stereo not drawn) [Econazole] has an MBC (MRSA USA300 [1]; [7]) of 32 µM (≈ 12.2 µg/mL), an MIC (MRSA USA300 [1]; [8]) of 4 µM (≈ 1.53 µg/mL) and an MIC ([2]; VRE, read-out: MIC) greater than 16 µM.

With `c1ccc(-c2ccc(C(c3ccccc3)n3ccnc3)cc2)cc1` (stereo not drawn) [Bifonazole] the MBC (MRSA USA300 [1]; [7]) was greater than 64 µM, the MIC (MRSA USA300 [1]; [8]) was 8 µM (≈ 2.48 µg/mL) and the MIC ([2]; VRE, read-out: MIC) was greater than 16 µM.

colistin gave an MICs of colistin (A. baumannii) of 0.25 µg/mL, an MICs of colistin (E.. coli O157:H7) of 0.25 µg/mL and an MICs of colistin (S. Typhimurium) of 1 µg/mL. For the same compound, the MICs of colistin (K. pneumonia) was 0.25 µg/mL and the MICs of colistin (P. aeruginosa) was 0.5 µg/mL.

In the case of `COc1cccc2c1C(=O)c1c(O)c3c(c(O)c1C2=O)C[C@@](O)(C(=O)CO)C[C@@H]3O[C@H]1C[C@H](N)[C@@H](O)[C@H](C)O1` [Epirubicin], the MBC (MRSA USA300 [1]; [7]) is reported as 64 µM (≈ 34.8 µg/mL), the MIC (MRSA USA300 [1]; [8]) is reported as 16 µM (≈ 8.7 µg/mL) and the MIC ([2]; VRE, read-out: MIC) is reported as 8 µM (≈ 4.35 µg/mL).

In the case of `CC(=O)[C@]1(O)Cc2c(O)c3c(c(O)c2[C@@H](O[C@H]2C[C@H](N)[C@H](O)[C@H](C)O2)C1)C(=O)c1ccccc1C3=O` [Idarubicin], the MBC (MRSA USA300 [1]; [7]) is reported as 4 µM (≈ 1.99 µg/mL), the MIC (MRSA USA300 [1]; [8]) is reported as 4 µM (≈ 1.99 µg/mL) and the MIC ([2]; VRE, read-out: MIC) is reported as 4 µM (≈ 1.99 µg/mL).

`O=c1[nH]c(=O)n(C2CCCO2)cc1F` (stereo not drawn) [Ftorafur] showed an MIC (MRSA USA300 [1]; [8]) greater than 16 µM and an MIC ([2]; VRE, read-out: MIC) of 16 µM (≈ 3.2 µg/mL).

`CC[C@H]1OC(=O)[C@H](C)[C@@H](O[C@H]2C[C@@](C)(OC)[C@@H](O)[C@H](C)O2)[C@H](C)[C@@H](O[C@@H]2O[C@H](C)C[C@H](N(C)C)[C@H]2O)[C@](C)(O)C[C@@H](C)C(=O)[C@H](C)[C@@H](O)[C@]1(C)O` [erythromycin] was tested, and the “activity when combined with Auranofin and Ebselen in infected cell cultures” value (intracellular MRSA) was “synergistic activity”.
